Where a name gives a salt, the structure may show the parent alone. Read-outs that look alike come from different tables or passages of the source. Blank lines part the entries; values can stand above or below the compound they belong to.
Key:
[1] = Redox Indicators; cited from earlier work
M1WT3 cells = test: Carbachol stimulation of M1WT3 cells, extracellular acidification rate in a THERMOmax microplate reader (Example 8); format: cell-based; conditions: for ΔpH/Sec: mean of triplicate
Description: The M1WT3 cells used for the following experiments were obtained from the American Type Culture Collection (No. CRL 1985). These cells were a line of CHO-K1 cells transfected with the gene for muscarinic receptors in order to provide cells responsive to cholinergic agonists, such as Carbachol. The M1WT3 cells were grown in Ham's F12 medium with 50 μg/ml […] (Geneticin), 10% fetal bovine serum, […], 1.0 mg/L streptomycin and 1000 units/L penicillin (growing medium) under 5% CO2 at 37° C.
To initiate growth, 5×10^4 M1WT3 cell/well (200 μL/well) were sterilely plated in selected individual wells of a flat bottom 96-well microplate. The selected wells were comprised of the inner 60 wells. At least 3 of the inner wells, however, were left without cells to be used as control wells. The entire microplate then was covered with a loosely-fitting plastic cover that allowed gas exchange to the wells and the microplate was incubated at 37° C. for approximately 24 hours to allow cells to attach to bottom of each selected well with cells.
Twelve hours prior to measuring extracellular acidification the growing media was aspirated off with a vacuum system and replaced with 200 μL of starving media (growing media with 1 mg/ml bovine serum albumin in place of the 10% fetal bovine serum) and the cells were again placed under 5% CO2 at 37° C. The microplate was then incubated for 12 hours. Within 30-60 minutes prior to monitoring the rates of extracellular acidification, the starving medium was aspirated off, the wells were rinsed with approximately 200 μL simple indicator medium (Table 2 components) and then filled with 200 μL of simple indicator medium. All media was warmed to 37° C. before addition to the cells.
The light absorbance of the individual wells of the 96-well microplate was read in a THERMOmax™ microplate absorbance reader modified to record the ratio of optical density at two wavelengths (560 nm/420 nm), kinetically at 37° C. for 15 minutes with automix on. The automix feature is described in the Operator's Manual for the THERMOmax™ instrument (Catalog No. 0112-0014) of Molecular Devices Corporation, Menlo Park, Calif. The automix feature provides for uniform mixing of the contents of each well of the multiassay plate for about 5 seconds, followed by measurement of optical density at the first wavelength (in this case 560 nm) in about 5 seconds, followed by a change in interference filter in about 1 second, followed by measurement of optical density at the second wavelength (in this case 420 nm) in about 5 seconds. Thus, all optical density measurements are completed within 11 seconds following termination of the agitation step and the time elapsed for any one well between measuring the optical density at the first and second wavelengths was 6 seconds. This was the minimum time between reading optical density at the first and second wavelengths possible with the THERMOmax™ instrument. Preferably the readings at the first and second wavelengths are made simultaneously.
Additionally, the contents of the microplate wells were not agitated between reading optical density at the first and second wavelengths so that the light scattering effects of the cells tended to be the same for the optical density measurements made at the first and second wavelengths for any one well. […] The reading cycle, with agitation, measuring absorbance at the first wavelength of light, changing the filter, and reading the absorbance at the second wavelength of light, was repeated at the rate of 3 cycles per minute (i.e. every 20 seconds).
At the end of the 15 minutes the reading cycles were stopped, the microplate was removed and the media was quickly aspirated off and replaced with simple indicator media containing a cell-affecting agent, in this case 0 to 300 μM Carbachol. The reading cycles then were repeated, as above, for two consecutive 15 minute data collection periods followed by one final 30 minute data collection period. […]

[2] = Apparent pH change with temperature of buffering systems as indicated by phenol red; format: physicochemical; conditions: phenol red pH indicator, 50 mM total buffer

Compound: O=C1C(Cl)=CC(=Nc2ccc(O)cc2)C=C1Cl [2,6-Dichloroindophenol Sodium Salt]
Potential at pHOa [1]: 0.67 Volts

Compound: COc1cc(-c2ccc(N)c(OC)c2)ccc1N.Cl.Cl [3,3'-Dimethoxybenzidine Dihydrochloride]
Potential at pHOa [1]: 0.76 Volts

Compound: COc1cc(-c2ccc(N)c(OC)c2)ccc1N [3,3'-Dimethoxybenzidine]
Potential at pHOa [1]: 0.76 Volts

Compound: O=S(=O)([O-])c1ccc(Nc2ccccc2)cc1.O=S(=O)([O-])c1ccc(Nc2ccccc2)cc1.[Ba+2] [Barium Diphenylaminesulfonate]
Potential at pHOa [1]: 0.85 Volts

Compound: C[N+](C)(C)CCOC(N)=O [Carbachol]
ΔProtons/Cell·Sec minus 0 Carbachol (M1WT3 cells; 3 μM, First 15 min): 1.00E + 07 ΔProtons/Cell·Sec
ΔpH/Sec (M1WT3 cells; 3 μM, First 15 min): 7.1534E - 05 ΔpH/Sec
ΔProtons/Cell·Sec minus 0 Carbachol (M1WT3 cells; 3 μM, Last 30 min): 1.44E - 07 ΔProtons/Cell·Sec
ΔpH/Sec (M1WT3 cells; 3 μM, Last 30 min): 5.0490E - 05 ΔpH/Sec
ΔProtons/Cell·Sec minus 0 Carbachol (M1WT3 cells; 3 μM, Second 15 min): 1.12E - 07 ΔProtons/Cell·Sec
ΔpH/Sec (M1WT3 cells; 3 μM, Second 15 min): 5.2542E - 05 ΔpH/Sec
ΔProtons/Cell·Sec minus 0 Carbachol (M1WT3 cells; 10 μM, First 15 min): 1.44E + 07 ΔProtons/Cell·Sec
ΔpH/Sec (M1WT3 cells; 10 μM, First 15 min): 7.5928E - 05 ΔpH/Sec
ΔProtons/Cell·Sec minus 0 Carbachol (M1WT3 cells; 10 μM, Last 30 min): 2.10E - 07 ΔProtons/Cell·Sec
ΔpH/Sec (M1WT3 cells; 10 μM, Last 30 min): 5.7103E - 05 ΔpH/Sec
ΔpH/Sec (M1WT3 cells; 10 μM, Second 15 min): 5.6378E - 05 ΔpH/Sec
ΔProtons/Cell·Sec minus 0 Carbachol (M1WT3 cells; 30 μM, First 15 min): 1.12E + 07 ΔProtons/Cell·Sec
ΔpH/Sec (M1WT3 cells; 30 μM, First 15 min): 7.2713E - 05 ΔpH/Sec
ΔpH/Sec (M1WT3 cells; 30 μM, Last 30 min): 5.7641E - 05 ΔpH/Sec
ΔProtons/Cell·Sec minus 0 Carbachol (M1WT3 cells; 30 μM, Second 15 min): 1.47E - 07 ΔProtons/Cell·Sec
ΔpH/Sec (M1WT3 cells; 30 μM, Second 15 min): 5.6101E - 05 ΔpH/Sec
ΔProtons/Cell·Sec minus 0 Carbachol (M1WT3 cells; 300 μM, First 15 min): 6.76E + 06 ΔProtons/Cell·Sec
ΔpH/Sec (M1WT3 cells; 300 μM, First 15 min): 8.8294E - 05 ΔpH/Sec
ΔpH/Sec (M1WT3 cells; 300 μM, Last 30 min): 5.2560E - 05 ΔpH/Sec
ΔProtons/Cell·Sec minus 0 Carbachol (M1WT3 cells; 300 μM, Second 15 min): 1.11E - 07 ΔProtons/Cell·Sec
ΔpH/Sec (M1WT3 cells; 300 μM, Second 15 min): 5.2420E - 05 ΔpH/Sec
activation at 3 µM (M1WT3 cells; 0.25 h, 3 μM, First 15 min, read-out: % Change compared to pre-Carbachol): 5.94%
activation at 3 µM (M1WT3 cells; 0.25 h, 3 μM, First 15 min, read-out: % Change compared to pre-Carbachol minus 0 Carbachol): 12.6%
activation at 10 µM (M1WT3 cells; 0.25 h, 10 μM, First 15 min, read-out: % Change compared to pre-Carbachol): 20%
activation at 10 µM (M1WT3 cells; 0.25 h, 10 μM, First 15 min, read-out: % Change compared to pre-Carbachol minus 0 Carbachol): 26.6%
activation at 30 µM (M1WT3 cells; 0.25 h, 30 μM, First 15 min, read-out: % Change compared to pre-Carbachol): 18.6%
activation at 30 µM (M1WT3 cells; 0.25 h, 30 μM, First 15 min, read-out: % Change compared to pre-Carbachol minus 0 Carbachol): 25.3%
activation at 300 µM (M1WT3 cells; 0.25 h, 300 μM, First 15 min, read-out: % Change compared to pre-Carbachol): 19.4%
activation at 300 µM (M1WT3 cells; 0.25 h, 300 μM, First 15 min, read-out: % Change compared to pre-Carbachol minus 0 Carbachol): 26.1%
activation at 3 µM (M1WT3 cells; 0.5 h, 3 μM, Last 30 min, read-out: % Change compared to pre-Carbachol): -25.2%
activation at 3 µM (M1WT3 cells; 0.5 h, 3 μM, Last 30 min, read-out: % Change compared to pre-Carbachol minus 0 Carbachol): 20%
activation at 3 µM (M1WT3 cells; 0.5 h, 3 μM, Second 15 min, read-out: % Change compared to pre-Carbachol): -22.2%
activation at 3 µM (M1WT3 cells; 0.5 h, 3 μM, Second 15 min, read-out: % Change compared to pre-Carbachol minus 0 Carbachol): 15%
activation at 10 µM (M1WT3 cells; 0.5 h, 10 μM, Last 30 min, read-out: % Change compared to pre-Carbachol): -9.77%
activation at 10 µM (M1WT3 cells; 0.5 h, 10 μM, Last 30 min, read-out: % Change compared to pre-Carbachol minus 0 Carbachol): 35.5%
activation at 10 µM (M1WT3 cells; 0.5 h, 10 μM, Second 15 min, read-out: % Change compared to pre-Carbachol): -10.9%
activation at 10 µM (M1WT3 cells; 0.5 h, 10 μM, Second 15 min, read-out: % Change compared to pre-Carbachol minus 0 Carbachol): 26.3%
activation at 30 µM (M1WT3 cells; 0.5 h, 30 μM, Last 30 min, read-out: % Change compared to pre-Carbachol): -5.63%
activation at 30 µM (M1WT3 cells; 0.5 h, 30 μM, Last 30 min, read-out: % Change compared to pre-Carbachol minus 0 Carbachol): 39.6%
activation at 30 µM (M1WT3 cells; 0.5 h, 30 μM, Second 15 min, read-out: % Change compared to pre-Carbachol): -8.46%
activation at 30 µM (M1WT3 cells; 0.5 h, 30 μM, Second 15 min, read-out: % Change compared to pre-Carbachol minus 0 Carbachol): 28.8%
activation at 300 µM (M1WT3 cells; 0.5 h, 300 μM, Last 30 min, read-out: % Change compared to pre-Carbachol): -8.08%
activation at 300 µM (M1WT3 cells; 0.5 h, 300 μM, Last 30 min, read-out: % Change compared to pre-Carbachol minus 0 Carbachol): 37.2%
activation at 300 µM (M1WT3 cells; 0.5 h, 300 μM, Second 15 min, read-out: % Change compared to pre-Carbachol): -8.33%
activation at 300 µM (M1WT3 cells; 0.5 h, 300 μM, Second 15 min, read-out: % Change compared to pre-Carbachol minus 0 Carbachol): 28.9%

Compound: O=C(O)CC(O)(CC(=O)O)C(=O)O [Citrate buffer]
apparent change in pH with change in temperature ([2]; with 1.0M NaCl added): 8.06 millipH/°C.

Compound: O.O.[C-]#N.[C-]#N.[Fe+2].c1cnc2c(c1)ccc1cccnc12.c1cnc2c(c1)ccc1cccnc12 [Dicyanobis(1,10-phenanthroline)Iron]
Potential at pHOa [1]: 1.41 Volts

Compound: c1ccc(Nc2ccccc2)cc1 [Diphenylamine]
Potential at pHOa [1]: 0.76 Volts

Compound: O=C(O)CN(CCN(CC(=O)O)CC(=O)O)CC(=O)O [EDTA, Ethylenedinitrilo-Tetraacetic Acid]
apparent change in pH with change in temperature ([2]; equilibrium with CO2 in air): less than 1 millipH/°C.

apparent change in pH with change in temperature ([2]; equilibrium with CO2 in air): -3.92 millipH/°C.
Compound: O=S(=O)(O)CCN1CCN(CCO)CC1 [HEPES, N-[2-Hydroxyethyl]piperazine-N'-[2-ethanesulfonic acid]]

apparent change in pH with change in temperature ([2]; equilibrium with CO2 in air): -4.74 millipH/°C.
Compound: O=S(=O)(O)CCN1CCOCC1 [MES, 2-[N-Morpholino]ethanesulfonic acid]

apparent change in pH with change in temperature ([2]; equilibrium with CO2 in air): less than 1 millipH/°C.
Compound: O=S(=O)(O)CCCN1CCOCC1 [MOPS, 3-[N-Morpholino]propanesulfonic acid]

Compound: CN(C)c1ccc2nc3ccc(=[N+](C)C)cc-3sc2c1 [Methylene Blue]
Potential at pHOa [1]: 0.53 Volts

Compound: CN(C)c1ccc(N)cc1 [N,N-Dimethyl-p-phenylanediamine]
Potential at pHOa [1]: 0.76 Volts

Compound: CN(C)c1ccc(N=C2C=CC(=O)C=C2)cc1 [N,N-Dimethylindoaniline]
Potential at pHOa [1]: 0.22 Volts

Compound: COc1ccc(Nc2ccc(N)cc2)cc1 [N-(p-Methoxyphenyl)-p-phenylanediamine Hydrochloride]
Potential at pHOa [1]: 0.71 Volts

Compound: O=C(O)c1ccccc1Nc1ccccc1 [N-Phenylanthranilic Acid]
Potential at pHOa [1]: 1.08 Volts

Compound: Cc1cc2nc3ccc(N(C)C)cc3nc2cc1N [Neutral Red]
Potential at pHOa [1]: -0.24 Volts

Compound: CC[N+](CC)=c1ccc2nc3c(cc(N)c4ccccc43)oc-2c1 [Nile Blue A]
Potential at pHOa [1]: 0.29 Volts

apparent change in pH with change in temperature ([2]; equilibrium with CO2 in air): -12.07 millipH/°C.
Compound: O=S(=O)(O)CCCNC(CO)(CO)CO [TAPS, 3-{[tris-(hydroxymethyl)-methyl]-amino}-propanesulfonicacid]

Compound: Nc1ccc2nc3ccc(N)cc3[s+]c2c1 [Thionin]
Potential at pHOa [1]: 0.56 Volts

Compound: O=S(=O)([O-])[O-].[Fe+2].c1cnc2c(c1)ccc1cccnc12.c1cnc2c(c1)ccc1cccnc12.c1cnc2c(c1)ccc1cccnc12 [Tris(1,10-phenanthroline)Iron(R) Sulfate]
Potential at pHOa [1]: 1.14 Volts

Compound: CCN=C1C=CC(=C(c2ccc(NCC)c(C)c2)c2ccc(S(=O)(=O)O)cc2S(=O)(=O)O)C=C1C [Xylene Cyanol FF]
Potential at pHOa [1]: 1.00 Volts

Compound: Cc1cc(-c2ccc(N)c(C)c2)ccc1N [o-Tolidine]
Potential at pHOa [1]: 0.87 Volts

Compound: CCOc1ccc(N=Nc2ccc(N)cc2N)cc1 [p-Ethoxyphenylazo-m-phenylanediamine Monohydrochloride]
Potential at pHOa [1]: 0.76 Volts

Compound: Brilliant Cresyl Blue
Potential at pHOa [1]: 0.58 Volts

Compound: Diphenylaminosulfonic Acid Sodium Salt
Potential at pHOa [1]: 0.85 Volts

Compound: N,N-Diphenylbenzidine
Potential at pHOa [1]: 0.76 Volts

From patent US5766875A, “Metabolic monitoring of cells in a microplate reader” (priority 1995, dated 1998)
